Source: PMC9415947 (Pharmaceuticals, 2022)
pIC50: −log10 of the molar value.

Legend:
PI3Kγ = biological target: T1, PI3Kγ (Homo sapiens, UniProt P48736); assay: In vitro PI3K inhibition assay (ADP-Glo kinase assay), PI3Kγ; assay type: biochemical; details: for pIC50: mean of two independent experiments; for Fold Selectivity γ/δ: ratio IC50 PI3Kγ / IC50 PI3Kδ
T1 construct: purchased Merck Millipore
Procedure: (§1) All compounds were tested in a biochemical assay that measured the inhibition of phosphatidylinositol […] production by PI3K isoforms using the ADP-Glo kinase assay (Promega). In addition, the effects of synthesized compounds on B cell proliferation were measured.
(§2) The potency and selectivity of compounds were assessed by measuring the ability of PI3K kinases to convert ATP to ADP during an enzymatic reaction in the presence of decreasing doses of tested compounds. The experiments were carried out using the ADP-Glo kinase assay kit (Promega), according to the manufacturer’s protocol. PI3Kα, PI3Kβ, PI3Kδ, and PI3Kγ have been purchased from Merck Millipore and phosphoinositol-4,5-bisphosphate (PIP2) lipid vesicles with phosphoserine from ThermoFisher Scientific were used as a substrate in the enzymatic reaction.
(§3) After the reaction, the ADP-Glo reagent and the kinase detection reagent were added sequentially with 40 min of incubation (25 °C, 600 rpm) after adding each reagent. Finally, the luminescence intensity was measured and the IC50 was calculated using GraphPad Prism 7 software. The presented results are the mean value of IC50 from at least two independent experiments.

PI3Kδ = biological target: T2, PI3Kδ (Homo sapiens, UniProt O00329); assay: In vitro PI3K inhibition assay (ADP-Glo kinase assay), PI3Kδ; assay type: biochemical; details: mean of two independent experiments
T2 construct: purchased Merck Millipore
T2 sequence (O00329 whole entry, looked up): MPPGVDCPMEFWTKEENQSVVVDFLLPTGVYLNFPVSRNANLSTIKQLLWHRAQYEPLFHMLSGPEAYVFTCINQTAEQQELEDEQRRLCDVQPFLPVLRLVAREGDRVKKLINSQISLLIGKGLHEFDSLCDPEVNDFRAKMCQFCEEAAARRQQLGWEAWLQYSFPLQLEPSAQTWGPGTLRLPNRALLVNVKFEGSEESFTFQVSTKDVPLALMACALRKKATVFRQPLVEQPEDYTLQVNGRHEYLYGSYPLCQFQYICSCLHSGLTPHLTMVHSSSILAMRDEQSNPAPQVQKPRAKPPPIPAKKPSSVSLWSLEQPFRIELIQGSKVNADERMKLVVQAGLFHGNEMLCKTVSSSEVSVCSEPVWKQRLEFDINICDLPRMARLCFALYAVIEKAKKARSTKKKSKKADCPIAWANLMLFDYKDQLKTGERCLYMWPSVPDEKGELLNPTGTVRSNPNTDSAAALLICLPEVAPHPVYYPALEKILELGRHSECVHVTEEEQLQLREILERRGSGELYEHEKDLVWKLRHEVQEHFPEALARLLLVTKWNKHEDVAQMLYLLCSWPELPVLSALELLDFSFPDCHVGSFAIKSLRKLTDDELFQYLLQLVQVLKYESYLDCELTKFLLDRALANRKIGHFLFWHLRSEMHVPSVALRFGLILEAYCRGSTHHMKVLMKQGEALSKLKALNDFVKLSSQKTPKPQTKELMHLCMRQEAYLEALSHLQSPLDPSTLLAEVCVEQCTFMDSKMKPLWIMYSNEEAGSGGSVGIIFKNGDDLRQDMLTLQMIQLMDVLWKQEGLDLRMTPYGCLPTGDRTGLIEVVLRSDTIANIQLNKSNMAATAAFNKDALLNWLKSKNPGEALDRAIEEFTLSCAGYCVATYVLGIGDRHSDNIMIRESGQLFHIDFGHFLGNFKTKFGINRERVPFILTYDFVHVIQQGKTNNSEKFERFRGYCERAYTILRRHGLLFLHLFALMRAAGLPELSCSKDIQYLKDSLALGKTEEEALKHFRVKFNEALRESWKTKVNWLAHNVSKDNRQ
Procedure: as §1, §2, §3

T1 sequence (P48736 whole entry): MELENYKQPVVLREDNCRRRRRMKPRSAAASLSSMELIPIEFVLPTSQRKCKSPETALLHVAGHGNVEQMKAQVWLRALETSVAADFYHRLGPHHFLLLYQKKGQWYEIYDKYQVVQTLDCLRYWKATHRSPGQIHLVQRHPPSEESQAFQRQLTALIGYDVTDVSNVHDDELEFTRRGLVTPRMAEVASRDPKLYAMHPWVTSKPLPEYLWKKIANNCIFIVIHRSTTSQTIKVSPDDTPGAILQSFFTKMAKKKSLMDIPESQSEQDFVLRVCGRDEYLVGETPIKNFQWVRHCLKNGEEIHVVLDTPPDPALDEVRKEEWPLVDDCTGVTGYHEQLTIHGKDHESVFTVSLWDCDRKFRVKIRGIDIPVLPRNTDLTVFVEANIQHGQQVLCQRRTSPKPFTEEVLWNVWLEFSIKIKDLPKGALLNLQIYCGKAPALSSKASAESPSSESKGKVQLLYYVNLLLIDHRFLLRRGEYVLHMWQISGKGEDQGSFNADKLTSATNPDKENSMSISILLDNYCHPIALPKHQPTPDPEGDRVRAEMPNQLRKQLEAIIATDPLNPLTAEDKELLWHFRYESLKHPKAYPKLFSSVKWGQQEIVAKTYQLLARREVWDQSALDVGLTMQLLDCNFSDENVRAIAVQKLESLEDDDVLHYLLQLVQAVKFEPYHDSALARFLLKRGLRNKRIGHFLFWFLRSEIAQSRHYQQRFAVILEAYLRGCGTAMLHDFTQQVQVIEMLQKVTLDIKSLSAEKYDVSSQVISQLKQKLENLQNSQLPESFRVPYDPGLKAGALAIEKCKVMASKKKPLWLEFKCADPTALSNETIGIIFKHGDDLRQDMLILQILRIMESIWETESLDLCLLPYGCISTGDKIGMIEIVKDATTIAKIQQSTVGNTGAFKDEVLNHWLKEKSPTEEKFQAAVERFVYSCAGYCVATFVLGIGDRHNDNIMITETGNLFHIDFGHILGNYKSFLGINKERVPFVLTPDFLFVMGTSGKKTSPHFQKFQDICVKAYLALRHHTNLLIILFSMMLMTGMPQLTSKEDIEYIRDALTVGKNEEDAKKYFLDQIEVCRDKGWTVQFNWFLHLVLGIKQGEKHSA

Row | Structure (SMILES) | pIC50 (PI3Kγ) | Fold Selectivity γ/δ (PI3Kγ) | pIC50 (PI3Kδ)
1 | NC(=O)C1CCN(Cc2cc3nc(-n4c(C(F)F)nc5ccccc54)cc(N4CCOCC4)n3n2)CC1 [Compound 29, 1-({5-[2-(difluoromethyl)-1H-1,3-benzimidazol-1-yl]-7-(morpholin-4-yl)pyrazolo[1,5-a]pyrimidin-2-yl}methyl)piperidine-4-carboxamide] | 5.73 | 7.7 | 6.62
2 | NC(=O)C1CCN(C(=O)c2cc3nc(-n4c(C(F)F)nc5ccccc54)cc(N4CCOCC4)n3n2)CC1 [Compound 48, 1-{5-[2-(difluoromethyl)-1H-1,3-benzimidazol-1-yl]-7-(morpholin-4-yl)pyrazolo[1,5-a]pyrimidine-2-carbonyl}piperidine-4-carboxamide] | 5.55 | 9 | 6.50
3 | OC1CCN(Cc2cc3nc(-n4c(C(F)F)nc5ccccc54)cc(N4CCOCC4)n3n2)CC1 [Compound 34, 1-({5-[2-(difluoromethyl)-1H-1,3-benzimidazol-1-yl]-7-(morpholin-4-yl)pyrazolo[1,5-a]pyrimidin-2-yl}methyl)piperidin-4-ol] | 5.36 | 7.7 | 6.25
4 | CN1CCN(Cc2cc3nc(-n4c(C(F)F)nc5ccccc54)cc(N4CCOCC4)n3n2)CC1 [Compound 37, 2-(difluoromethyl)-1-{2-[(4-methylpiperazin-1-yl)methyl]-7-(morpholin-4-yl)pyrazolo[1,5-a]pyrimidin-5-yl}-1H-1,3-benzimidazole] | 4.75 | 50 | 6.45
5 | C[C@H]1COCCN1Cc1cc2nc(-n3c(C(F)F)nc4ccccc43)cc(N3CCOCC3)n2n1 [Compound 24, 2-(difluoromethyl)-1-(2-{[(3S)-3-methylmorpholin-4-yl]methyl}-7-(morpholin-4-yl)pyrazolo[1,5-a]pyrimidin-5-yl)-1H-1,3-benzimidazole] | 6.23 | 2.3 | 6.60
6 | O=C(c1cc2nc(-n3c(C(F)F)nc4ccccc43)cc(N3CCOCC3)n2n1)N1CCN(C(=O)C2CC2)CC1 [Compound 43, 1-[2-(4-cyclopropanecarbonylpiperazine-1-carbonyl)-7-(morpholin-4-yl)pyrazolo[1,5-a]pyrimidin-5-yl]-2-(difluoromethyl)-1H-1,3-benzimidazole] | 5.42 | 61 | 7.20
7 | FC(F)c1nc2ccccc2n1-c1cc(N2CCOCC2)n2nc(CN3CCOCC3)cc2n1 [Compound 23, 2-(difluoromethyl)-1-[7-(morpholin-4-yl)-2-(morpholin-4-ylmethyl)pyrazolo[1,5-a]pyrimidin-5-yl]-1H-1,3-benzimidazole] | 5.86 | 10 | 6.87
8 | O=C(c1cc2nc(-n3c(C(F)F)nc4ccccc43)cc(N3CCOCC3)n2n1)N1CCOCC1 [Compound 46, 2-(difluoromethyl)-1-[7-(morpholin-4-yl)-2-(morpholine-4-carbonyl)pyrazolo[1,5-a]pyrimidin-5-yl]-1H-1,3-benzimidazole] | 5.07 | 38 | 6.65
9 | N#CC1CCN(Cc2cc3nc(-n4c(C(F)F)nc5ccccc54)cc(N4CCOCC4)n3n2)CC1 [Compound 32, 1-({5-[2-(difluoromethyl)-1H-1,3-benzimidazol-1-yl]-7-(morpholin-4-yl)pyrazolo[1,5-a]pyrimidin-2-yl}methyl)piperidine-4-carbonitrile] | 5.50 | 16 | 6.72
10 | CNC(=O)CN1CCN(C(=O)c2cc3nc(-n4c(C(F)F)nc5ccccc54)cc(N4CCOCC4)n3n2)CC1 [Compound 55, 2-(4-{5-[2-(difluoromethyl)-1H-1,3-benzimidazol-1-yl]-7-(morpholin-4-yl)pyrazolo[1,5-a]pyrimidine-2-carbonyl}piperazin-1-yl)-N-methylacetamide] | 5.66 | 26 | 7.09
